Reference: publication PMC7686577, “Discovery of Novel IDH1 Inhibitor Through Comparative Structure-Based Virtual Screening” (Frontiers in Pharmacology, 2020)

Assays:
[1] = system: advanced hematological malignancies; design: method as in Foran et al., 2019; details: clinic, ref Foran et al., 2019; cited from earlier work
mutant IDH1^R132H = mutant IDH1^R132H (Homo sapiens, UniProt O75874, R132H); experiment: IDH1^R132H enzymatic assay (diaphorase/resazurin readout of NADPH); type: biochemical; details: for Inhibition ratio (%) 50 (μM): compound at 50 μM
Chain of mutant IDH1^R132H (O75874 whole entry R132H): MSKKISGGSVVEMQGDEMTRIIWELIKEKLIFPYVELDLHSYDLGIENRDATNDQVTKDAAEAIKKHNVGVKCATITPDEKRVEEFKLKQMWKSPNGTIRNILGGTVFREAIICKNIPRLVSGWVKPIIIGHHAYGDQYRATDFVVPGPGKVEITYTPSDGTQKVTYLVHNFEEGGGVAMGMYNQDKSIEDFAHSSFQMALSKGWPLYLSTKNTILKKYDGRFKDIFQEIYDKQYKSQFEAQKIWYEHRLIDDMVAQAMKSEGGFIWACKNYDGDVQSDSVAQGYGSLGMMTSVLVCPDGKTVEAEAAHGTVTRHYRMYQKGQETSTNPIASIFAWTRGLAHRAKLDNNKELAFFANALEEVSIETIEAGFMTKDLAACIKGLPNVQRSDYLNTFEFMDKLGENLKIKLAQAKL
Procedure: This assay added into a 384-well blank plate and then incubated at room temperature for 60 min. […] Curve fitting for dose response IC50 was done using GraphPad Prism.
These 12 ligands were submitted to determine the IC50.

Compound	IC50 (mutant IDH1^R132H)	Inhibition ratio (%) 50 (μM) (mutant IDH1^R132H)	total overall response rate [1]
N#Cc1ccnc(N2C(=O)CC[C@H]2C(=O)N(c2cncc(F)c2)[C@H](C(=O)NC2CC(F)(F)C2)c2ccccc2Cl)c1 [AG-120]			42%
O=C1C[C@H](C(=O)N(Cc2cccc3ccccc23)c2ccccn2)CN1Cc1ccccc1 [D491-0852]	46.9 ± 6 µM	58.00±0.60%	
CCC[C@@H]1N=C2c3ccccc3N=C(S[C@@H](CC)C(=O)Nc3cccc(Cl)c3)N2C1=O [G568-0082]	41.9 ± 8 µM	54.30±4.30%	
O=C1CS[C@@H](c2cccc(NS(=O)(=O)c3ccc4ccccc4c3)c2)N1c1ccc(F)cc1 [V010-1281]	50 ± 6.4 µM	60.85±2.05%	
O=C(Cc1ccc(N(Cc2ccccc2)C(=O)c2cccc(F)c2)cc1)NCc1cccnc1 [V016-3750]	42.9 ± 2.8 µM	54.90±1.70%	
CN(CC(=O)N1N=C(c2ccccc2Cl)C[C@H]1c1ccc2c(c1)OCO2)C(=O)C1CCCC1 [V025-9252]	45.5 ± 3.1 µM	59.15±3.75%	

Continued by falling IC50 (mutant IDH1^R132H), values first:

IC50 (mutant IDH1^R132H)	Inhibition ratio (%) 50 (μM) (mutant IDH1^R132H)	Compound	total overall response rate [1]
38 ± 2 µM	61.15±6.15%	CCOC(=O)c1[nH]c(C)c(CN(Cc2ccccc2)C(=O)[C@@H](C)Oc2ccccc2)c1C [G798-0506]	
28.3 ± 2.5 µM	66.25±3.25%	O=C(NCc1ccc(C(F)(F)F)cc1)c1nnn(-c2ccccc2Cl)c1-c1cccnc1 [L806-0255]	
23.8 ± 1.8 µM	65.30±2.30%	O=C1C[C@H](C(=O)N(CCc2ccccc2)Cc2ccccc2)CN1Cc1cccc(Br)c1 [V015-1671]	
20.8 ± 4.2 µM	73.30±1.90%	COc1ccc(C(=O)[C@@H](Cn2cncn2)[C@H](Sc2ccccc2)c2ccccc2)cc1 [AQ-714/41674992]	
